Legend:
NFκB = experiment: Experiment 3: NFκB-driven 3-EnhTK-Luc reporter in CV1 cells with GR1; type: cell-based, African Green Monkey
From the text: (§1) Two plasmid constructs were introduced by standard calcium phosphate precipitation of DNA followed by glycerol shock (Ausubel F M, Brent R, Kingston D D, Moore J G et al Current protocols in molecular biology 1994 Greene Publishing Associates/Wiley-Interscience, New York, N.Y.) using a transformed African Green Monkey kidney cell line (CV1) (Schneikert J, Peterziel H, Defossez P-A, Klocker H, de Launoit Y and Cato A C B Androgen receptor-Ets protein interaction is a novel mechanism for steroid hormone-mediated down-modulation of matrix metalloproteinase expression, Journal of Biological Chemistry. Vol 271(39) (pp 23907-23913), 1996).
This experiment was intended to show the effect of compounds I on a mediator of the immune response, nuclear factor—κB (NF-κB).
The following two plasmids were included into CV1 cells described above— • (a) GR1 as described above at 2 ug per 5×10^5 cells, and • (b) a plasmid designated 3-EnhTK-Luc (at 0.5 ug per 5×10^5 cells) which contains a transcription site that is activated by NFκB.
The blank represented the inclusion of these two plasmids alone; the relatively high value was caused by (i) the high level of serum in the culture, and (ii) the associated stress that the cells underwent during the […]—both of which upregulate NFκB. There was also a related relatively low activation of TNF (at 4 ng/ml) above a serum containing blank in the experiment. TNF was tumour necrosis factor alpha.

collagenase I promoter [1] = experiment: Experiment 1: collagenase I promoter (-73/+63)-luciferase in CV1 cells transfected with GR1 (glucocorticoid receptor); type: cell-based, African Green Monkey; conditions: for % control (GR1): Blank = 100
From the text: as §1
(§2) Accordingly, the following two plasmids were included into CV1 cells described above — • (a) Either of GR1 or pSG5ARF containing glucocorticoid or androgen receptor (AR) respectively, both at 2 ug per 5×10^5 cells, driven by the Rous sarcoma virus promoter, and • (b) a plasmid containing the −73/+63 portion of the collagenase I promoter linked to luciferase gene at 8 ug per 5×10^5 cells.
(§3) CPII was compound II above, clobuzarit.

collagenase I promoter [2] = experiment: Experiment 1: collagenase I promoter (-73/+63)-luciferase in CV1 cells transfected with pSG5ARF (androgen receptor); type: cell-based, African Green Monkey; conditions: for % control (AR): Blank = 100
From the text: as §1, §2, §3

collagenase I promoter [3] = experiment: Experiment 1: collagenase I promoter (-73/+63)-luciferase in CV1 cells, no receptor plasmid (Empty); type: cell-based, African Green Monkey; conditions: no receptor, substance added alone
From the text: as §1, §2, §3

[4] = tested on: collagenase (MMP-1) promoter; experiment: Experiment 4.2: collagenase (MMP-1) promoter-luciferase in MCF-7 cells with antisense construct for the thyroid receptor; type: cell-based, human; conditions: MCF-7 + thyroid receptor antisense, substance added alone
Procedure: (§4) These experiments were intended to identify the receptor through which compounds I might be acting to block collagenase promoter activity.
(§5) Transfection procedure hereinbefore described with CV1 cells was repeated using MCF-7 mammary breast cancer cells derived from pleural effusion from a breast cancer patient. Additionally, each experiment included transfection of a plasmid (at 8 ug per 5×10^5 cells) containing the −517/+63 section of the collagenase (MMP-1) promoter linked to the luciferase gene. TPA was used as above to stimulate activity of the collagenase promoter resulting in luciferase production. Compound II or 3,3,5-triiodo-L-thyronine (T3) was included (both at 10^−8M), the latter being a known ligand for the thyroid hormone receptor.
Experiment 4.2. The procedure of Experiment 4.1 was repeated except that a second plasmid, containing 662 bp antisense construct for the thyroid receptor (at 8 ug per 5×10^5 cells) was additionally transfected.

[5] = tested on: collagenase (MMP-1) promoter; experiment: Experiment 4.3: collagenase (MMP-1) promoter-luciferase in MCF-7 cells with transfected chick thyroid hormone receptor; type: cell-based, human; conditions: MCF-7 + chick thyroid hormone receptor, substance added alone
Procedure: as §4, §5

[6] = tested on: collagenase (MMP-1) promoter; experiment: Experiment 4.1: collagenase (MMP-1) promoter (-517/+63)-luciferase in MCF-7 cells, endogenous thyroid hormone receptors; type: cell-based, human; conditions: MCF-7, endogenous thyroid hormone receptors, substance added alone
Procedure: as §4, §5
Experiment 4.1. As MCF-7 cells express endogenous thyroid hormone receptors, only the collagenase promoter plasmid (at 8 ug per 5×10^5 cells) was transfected into the MCF-7 cells.

[7] = substance added with TPA 75 ng/ml, Dex 10^-7M
[8] = substance added alone, TPA 75 ng/ml
[9] = substance added with TPA 75 ng/ml, DHT 10^-7M

C[C@@H]1C[C@H]2[C@@H]3CCC4=CC(=O)C=C[C@]4(C)[C@@]3(F)[C@@H](O)C[C@]2(C)[C@@]1(O)C(=O)CO [Dex, dexamethazone, reference compound]
Raw Counts (NFκB; substance added with TNF 4 ng/ml): 18525 counts
% Control (NFκB; substance added with TNF 4 ng/ml, Blank = 100): 31%
inhibitory effect on NFκB transcription, in words (NFκB; with TNF): marked effect
Raw counts (GR1) (collagenase I promoter [1]; [7]): 10981 counts
% control (GR1) (collagenase I promoter [1]; [7]): 86%
collagenase I activation, in words (GR1) (collagenase I promoter [1]; TPA-stimulated, glucocorticoid receptor): able to down regulate this activation

CCCCCCCCCCCCCC(=O)O[C@@H]1[C@@H](C)[C@@]2(O)[C@@H](C=C(CO)C[C@]3(O)C(=O)C(C)=C[C@@H]23)[C@@H]2C(C)(C)[C@]12OC(C)=O [TPA, 12-O—tetradecanoylphorbol-13-acetate, reference compound]
% control (AR) (collagenase I promoter [2]; substance added alone): 436%
Raw counts (AR) (collagenase I promoter [2]; [8]): 11639 counts
Raw counts (Empty) (collagenase I promoter [3]; luciferase, TPA 75 ng/ml): 5407 counts
% control (Empty) (collagenase I promoter [3]; Blank = 100): 225%
% Control ([4]; Blank = 100): 341.2%
Raw Counts ([4]; CPII 10^-8M): 4975 counts
% control (GR1) (collagenase I promoter [1]; substance added alone): 448%
Raw counts (GR1) (collagenase I promoter [1]; [8]): 57519 counts
% Control ([5]; Blank = 100): 528%
Raw Counts ([5]; CPII 10^-8M): 11528 counts
% Control ([6]; Blank = 100): 1174.3%
Raw Counts ([6]; CPII 10^-8M): 147665 counts

C[C@]12CCC(=O)C[C@@H]1CC[C@@H]1[C@@H]2CC[C@]2(C)[C@@H](O)CC[C@@H]12 [DHT, dihydroxytestosterone, reference compound]
Raw counts (AR) (collagenase I promoter [2]; [9]): 3711 counts
% control (AR) (collagenase I promoter [2]; [9]): 139%
collagenase I activation, in words (AR) (collagenase I promoter [2]; TPA-stimulated, androgen receptor): able to down regulate this activation

— patent publication US20070213402A1, “Compounds which interact with the thyroid hormone receptor for the treatment of fibrotic disease” (priority 1998, published 2007)
